# Experimental data: patent publication US20250171457A1, “NITROGEN-CONTAINING HETEROCYCLIC COMPOUND HAVING NRF2 ACTIVATION EFFECT” (CHUGAI SEIYAKU KABUSHIKI KAISHA, priority 2022, published 2025)
# Test system: Nrf2 transcriptional activity (pARE-Luc reporter) in HepG2 cells
# Assay: In vitro Nrf2 transcriptional activity measurement by ARE-dependent reporter assay in HepG2 cell
# Type: cell-based, human
# Details: Homo sapiens; HepG2 cells transfected with pARE-Luc, 4 hours at 37° C.; luciferase activity of Example 1-54 or Example 17-23 at 3.75 μM defined as 100%
# Summary of the method: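 HepG2 cells transfected with pGL4.37 (pARE-Luc), replated onto compound and incubated 4 h at 37° C; luciferase read by Bright-Glo luminescence. Response normalized to 100% set by a reference compound at 3.75 μM; EC50 from dose-response curve.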
row,Structure (SMILES),EC50 [nM]
1,"C[C@@H]1CN(C2COC2)CCN1c1cc(Cl)c(C(=O)N2COc3c(cccc3-c3cc(N4C5CCC4COC5)c(C(=O)O)cc3F)C2)c(Cl)c1 [Compound 9-16, 4-[3-[2,6-Dichloro-4-[(2R)-2-methyl-4-(oxetan-3-yl)piperazin-1-yl]benzoyl]-2,4-dihydro-1,3-benzoxazin-8-yl]-5-fluoro-2-(3-oxa-8-azabicyclo[3.2.1]octan-8-yl)benzoic acid]",4.8
2,"O=C(O)c1cc(F)c(-c2cccc3c2OCN(C(=O)c2c(Cl)cc(N4CC5CCC(C4)N5C4COC4)cc2Cl)C3)cc1N1C2CCC1COC2 [Compound 9-17, 4-[3-[2,6-Dichloro-4-[8-(oxetan-3-yl)-3,8-diazabicyclo[3.2.1]octan-3-yl]benzoyl]-2,4-dihydro-1,3-benzoxazin-8-yl]-5-fluoro-2-(3-oxa-8-azabicyclo[3.2.1]octan-8-yl)benzoic acid]",7.5
3,"O=C(O)c1cc(F)c(-c2cccc3c2OCN(C(=O)c2c(Cl)cc(N4C5CCC4CN(C4COC4)C5)cc2Cl)C3)cc1N1C2CCC1COC2 [Compound 9-18, 4-[3-[2,6-Dichloro-4-[3-(oxetan-3-yl)-3,8-diazabicyclo[3.2.1]octan-8-yl]benzoyl]-2,4-dihydro-1,3-benzoxazin-8-yl]-5-fluoro-2-(3-oxa-8-azabicyclo[3.2.1]octan-8-yl)benzoic acid]",6.4
4,"C[C@H]1CN(C2COC2)CCN1c1cc(Cl)c(C(=O)N2COc3c(cccc3-c3cc(N4C5CCC4COC5)c(C(=O)O)cc3F)C2)c(Cl)c1 [Compound 9-19, 4-[3-[2,6-Dichloro-4-[(2S)-2-methyl-4-(oxetan-3-yl)piperazin-1-yl]benzoyl]-2,4-dihydro-1,3-benzoxazin-8-yl]-5-fluoro-2-(3-oxa-8-azabicyclo[3.2.1]octan-8-yl)benzoic acid]",5.9
5,"O=C(O)c1cc(F)c(-c2cccc3c2OCN(C(=O)c2c(Cl)cc(N4CC5CCC(C4)N5C4CC4)cc2Cl)C3)cc1N1C2CCC1COC2 [Compound 9-20, 4-[3-[2,6-Dichloro-4-(8-cyclopropyl-3,8-diazabicyclo[3.2.1]octan-3-yl)benzoyl]-2,4-dihydro-1,3-benzoxazin-8-yl]-5-fluoro-2-(3-oxa-8-azabicyclo[3.2.1]octan-8-yl)benzoic acid]",4.6
6,"O=C(O)c1cc(F)c(-c2cccc3c2OCN(C(=O)c2c(Cl)cc(N4C5CC4CN(C4CC(F)(F)C4)C5)cc2Cl)C3)cc1N1C2CCC1COC2 [Compound 9-21, 4-[3-[2,6-Dichloro-4-[3-(3,3-difluorocyclobutyl)-3,6-diazabicyclo[3.1.1]heptan-6-yl]benzoyl]-2,4-dihydro-1,3-benzoxazin-8-yl]-5-fluoro-2-(3-oxa-8-azabicyclo[3.2.1]octan-8-yl)benzoic acid]",6
7,"CCN1CCN(c2cc(Cl)c(C(=O)N3COc4c(cccc4-c4cc(N5C6CCC5COC6)c(C(=O)O)cc4F)C3)c(Cl)c2)[C@H](C)C1 [Compound 9-22, 4-[3-[2,6-Dichloro-4-[(2R)-4-ethyl-2-methylpiperazin-1-yl]benzoyl]-2,4-dihydro-1,3-benzoxazin-8-yl]-5-fluoro-2-(3-oxa-8-azabicyclo[3.2.1]octan-8-yl)benzoic acid]",0.9
8,"CN1CCN(c2cc(Cl)c(C(=O)N3COc4c(cccc4-c4cc(N5C6CCC5COC6)c(C(=O)O)cc4F)C3)c(Cl)c2)CC1C(F)(F)F (centres unmarked) [Compound 9-23, 4-[3-[2,6-Dichloro-4-[4-methyl-3-(trifluoromethyl)piperazin-1-yl]benzoyl]-2,4-dihydro-1,3-benzoxazin-8-yl]-5-fluoro-2-(3-oxa-8-azabicyclo[3.2.1]octan-8-yl)benzoic acid]",3.1
9,"CC1C(C)N(c2cc(Cl)c(C(=O)N3COc4c(cccc4-c4cc(N5C6CCC5COC6)c(C(=O)O)cc4F)C3)c(Cl)c2)CCN1C (centres unmarked) [Compound 9-24, 4-[3-[2,6-Dichloro-4-(2,3,4-trimethylpiperazin-1-yl)benzoyl]-2,4-dihydro-1,3-benzoxazin-8-yl]-5-fluoro-2-(3-oxa-8-azabicyclo[3.2.1]octan-8-yl)benzoic acid]",2.5
10,"C[C@@H]1CNCCN1c1cc(Cl)c(C(=O)N2COc3c(cccc3-c3cc(N4C5CCC4COC5)c(C(=O)O)cc3F)C2)c(Cl)c1 [Compound 9-25, 4-[3-[2,6-Dichloro-4-[(2R)-2-methylpiperazin-1-yl]benzoyl]-2,4-dihydro-1,3-benzoxazin-8-yl]-5-fluoro-2-(3-oxa-8-azabicyclo[3.2.1]octan-8-yl)benzoic acid]",8.8
11,"CN1CCC2(C1)CN(c1cc(Cl)c(C(=O)N3COc4c(cccc4-c4cc(N5C6CCC5COC6)c(C(=O)O)cc4F)C3)c(Cl)c1)C2 [Compound 10-1, 4-[3-[2,6-Dichloro-4-(7-methyl-2,7-diazaspiro[3.4]octan-2-yl)benzoyl]-2,4-dihydro-1,3-benzoxazin-8-yl]-5-fluoro-2-(3-oxa-8-azabicyclo[3.2.1]octan-8-yl)benzoic acid]",6.5
12,"O=C(O)c1cc(F)c(-c2cccc3c2OCN(C(=O)c2c(Cl)cc(N4CC5(CCN(C6COC6)C5)C4)cc2Cl)C3)cc1N1C2CCC1COC2 [Compound 10-2, 4-[3-[2,6-Dichloro-4-[7-(oxetan-3-yl)-2,7-diazaspiro[3.4]octan-2-yl]benzoyl]-2,4-dihydro-1,3-benzoxazin-8-yl]-5-fluoro-2-(3-oxa-8-azabicyclo[3.2.1]octan-8-yl)benzoic acid]",5.2
13,"C[C@@H]1CN(c2cc(Cl)c(C(=O)N3COc4c(cccc4-c4cc(N5C6CCC5COC6)c(C(=O)O)cc4F)C3)c(Cl)c2)CCN1C [Compound 10-3, 4-[3-[2,6-Dichloro-4-[(3R)-3,4-dimethylpiperazin-1-yl]benzoyl]-2,4-dihydro-1,3-benzoxazin-8-yl]-5-fluoro-2-(3-oxa-8-azabicyclo[3.2.1]octan-8-yl)benzoic acid]",1.5
14,C[C@@H]1CN(c2cc(Cl)c(C(=O)N3COc4c(cccc4-c4cc(N5C6CCC5COC6)c(C(=O)O)cc4F)C3)c(Cl)c2)C[C@H](C)N1C [Compound 10-4],4.8
15,"C[C@H]1CN(c2cc(Cl)c(C(=O)N3COc4c(cccc4-c4cc(N5C6CCC5COC6)c(C(=O)O)cc4F)C3)c(Cl)c2)CCN1C [Compound 10-5, 4-[3-[2,6-Dichloro-4-[(3S)-3,4-dimethylpiperazin-1-yl]benzoyl]-2,4-dihydro-1,3-benzoxazin-8-yl]-5-fluoro-2-(3-oxa-8-azabicyclo[3.2.1]octan-8-yl)benzoic acid]",4.3
16,"CN1CCN(c2cc(Cl)c(C(=O)N3COc4c(cccc4-c4cc(N5C6CCC5COC6)c(C(=O)O)cc4F)C3)c(Cl)c2)CC1(C)C [Compound 10-6, 4-[3-[2,6-Dichloro-4-(3,3,4-trimethylpiperazin-1-yl)benzoyl]-2,4-dihydro-1,3-benzoxazin-8-yl]-5-fluoro-2-(3-oxa-8-azabicyclo[3.2.1]octan-8-yl)benzoic acid]",9.1
17,"O=C(O)c1cc(F)c(-c2cccc3c2OCN(C(=O)c2c(Cl)cc(N4C[C@@H]5C[C@H]4CN5C4COC4)cc2Cl)C3)cc1N1C2CCC1COC2 [Compound 10-7, 4-[3-[2,6-Dichloro-4-[(1S,4S)-5-(oxetan-3-yl)-2,5-diazabicyclo[2.2.1]heptan-2-yl]benzoyl]-2,4-dihydro-1,3-benzoxazin-8-yl]-5-fluoro-2-(3-oxa-8-azabicyclo[3.2.1]octan-8-yl)benzoic acid]",23
18,"C[C@@H]1CN(c2cc(Cl)c(C(=O)N3COc4c(cccc4-c4cc(N5C6CCC5COC6)c(C(=O)O)cc4F)C3)c(Cl)c2)CCN1C1COC1 [Compound 10-8, 4-[3-[2,6-Dichloro-4-[(3R)-3-methyl-4-(oxetan-3-yl)piperazin-1-yl]benzoyl]-2,4-dihydro-1,3-benzoxazin-8-yl]-5-fluoro-2-(3-oxa-8-azabicyclo[3.2.1]octan-8-yl)benzoic acid]",1.5
19,"O=C(O)c1cc(F)c(-c2cccc3c2OCN(C(=O)c2c(Cl)cc(N4CCCN(C5COC5)CC4)cc2Cl)C3)cc1N1CCOCC1 [Compound 10-9, 4-[3-[2,6-Dichloro-4-[4-(oxetan-3-yl)-1,4-diazepan-1-yl]benzoyl]-2,4-dihydro-1,3-benzoxazin-8-yl]-5-fluoro-2-morpholin-4-ylbenzoic acid]",1.2
20,"CN1C[C@@H]2C[C@H]1CN2c1cc(Cl)c(C(=O)N2COc3c(cccc3-c3cc(N4C5CCC4COC5)c(C(=O)O)cc3F)C2)c(Cl)c1 [Compound 10-10, 4-[3-[2,6-Dichloro-4-[(1S,4S)-5-methyl-2,5-diazabicyclo[2.2.1]heptan-2-yl]benzoyl]-2,4-dihydro-1,3-benzoxazin-8-yl]-5-fluoro-2-(3-oxa-8-azabicyclo[3.2.1]octan-8-yl)benzoic acid]",25
21,"O=C(O)c1cc(F)c(-c2cccc3c2OCN(C(=O)c2c(Cl)cc(N4CC5(C4)CN(C4COC4)C5)cc2Cl)C3)cc1N1CCOCC1 [Compound 10-11, 4-[3-[2,6-Dichloro-4-[2-(oxetan-3-yl)-2,6-diazaspiro[3.3]heptan-6-yl]benzoyl]-2,4-dihydro-1,3-benzoxazin-8-yl]-5-fluoro-2-morpholin-4-ylbenzoic acid]",2.4
22,"CN1CC2(C1)CN(c1cc(Cl)c(C(=O)N3COc4c(cccc4-c4cc(N5CCOCC5)c(C(=O)O)cc4F)C3)c(Cl)c1)C2 [Compound 10-12, 4-[3-[2,6-Dichloro-4-(6-methyl-2,6-diazaspiro[3.3]heptan-2-yl)benzoyl]-2,4-dihydro-1,3-benzoxazin-8-yl]-5-fluoro-2-morpholin-4-ylbenzoic acid]",1.2
23,"CC(C)N1CCC(Oc2cc(Cl)c(C(=O)N3COc4c(cccc4-c4ccc(C(=O)O)c(N5CCOCC5)c4)C3)c(Cl)c2)CC1 [Compound 10-13, 4-[3-[2,6-Dichloro-4-(1-propan-2-ylpiperidin-4-yl)oxybenzoyl]-2,4-dihydro-1,3-benzoxazin-8-yl]-2-morpholin-4-ylbenzoic acid]",4.2
